Source: patent US20140213447A1, “HERBICIDAL COMPOSITIONS COMPRISING 4-AMINO-3-CHLORO-6-(4-CHLORO-2-FLUORO-3-METHOXYPHENYL) PYRIDINE-2-CARBOXYLIC ACID OR A DERIVATIVE THEREOF AND CERTAIN TRIAZOLOPYRIMIDINE SULFONAMIDES” (DOW AGROSCIENCES LLC, priority 2013, published 2014)

Columns and labels:
Format in all cases: in vivo
Settings in all cases: alone, 14 d
[1] = system: Brassica napus (winter oilseed rape); test: Postemergent herbicidal activity, greenhouse foliar application, BRSNW
Description: (§1) Evaluation of Postemergent Herbicidal Activity. Seeds or nutlets of the desired test plant species were planted in Sun Gro Metro-Mix® 360 planting mixture, which typically has a pH of 6.0 to 6.8 and an organic matter content of about 30 percent, in plastic pots with a surface area of 64 square centimeters (cm^2). When required to ensure good germination and healthy plants, a fungicide treatment and/or other chemical or physical treatment was applied. The plants were grown for 7-21 days (d) in a greenhouse with an approximate 15 hour (h) photoperiod which was maintained at about 23-29° C. during the day and 22-28° C. during the night. Nutrients and water were added on a regular basis and supplemental lighting was provided with overhead metal halide 1000-Watt lamps as necessary. The plants were employed for testing when they reached the first or second true leaf stage.
(§2) A weighed amount, determined by the highest rate to be tested, of each test compound was placed in a 25 milliliter (mL) glass vial and was dissolved in 4 mL of a 97:3 volume per volume (v/v) mixture of acetone and dimethyl sulfoxide (DMSO) to obtain concentrated stock solutions. […] The concentrated stock solutions obtained were diluted with 20 mL of an aqueous mixture containing acetone, water, isopropyl alcohol, DMSO, Atplus 411F crop oil concentrate, and Triton® X-155 surfactant in a 48.5:39:10:1.5:1.0:0.02 v/v ratio to obtain spray solutions containing the highest application rates. Additional application rates were obtained by serial dilution of 12 mL of the high rate solution into a solution containing 2 mL of a 97:3 v/v mixture of acetone and DMSO and 10 mL of an aqueous mixture containing acetone, water, isopropyl alcohol, DMSO, Atplus 411F crop oil concentrate, and Triton X-155 surfactant in a 48.5:39:10:1.5:1.0:0.02 v/v ratio to obtain ½×, ¼×, ⅛× and 1/16× rates of the high rate. Compound requirements are based upon a 12 mL application volume at a rate of 187 liters per hectare (L/ha). Formulated compounds were applied to the plant material with an overhead Mandel track sprayer equipped with 8002E nozzles calibrated to deliver 187 L/ha over an application area of 0.503 square meters (m^2) at a spray height of 18 inches ([…]) above the average plant canopy height. Control plants were sprayed in the same manner with the solvent blank.
(§3) Treatments consisted of the methyl ester of 4-amino-3-chloro-6-(4-chloro-2-fluoro-3-methoxyphenyl)pyridine-2-carboxylic acid (Cmpd 1) as technical grade material and cloransulam-methyl (FirstRate®) and diclosulam (Strongarm®) alone and in combination. The form of compound of formula (I) was applied on an acid equivalent basis, and cloransulam-methyl and diclosulam were applied on an active ingredient basis.
(§4) The treated plants and control plants were placed in a greenhouse as described above and watered by subirrigation to prevent wash-off of the test compounds. After 14 d, the condition of the test plants as compared with that of the untreated plants was determined visually and scored on a scale of 0 to 100 percent where 0 corresponds to no injury and 100 corresponds to complete kill.
(§5) Results in Tables 1 and 2 are greenhouse trial results for foliar applied compositions. The values reported are percent (%) control visually rated. Colby's equation was used to determine the herbicidal effects expected from the mixtures (Colby, S. R. Calculation of the synergistic and antagonistic response of herbicide combinations. Weeds 1967, 15, 20-22.). More specifically, the following equation was used to calculate the expected activity of mixtures containing two active ingredients, A and B:
(§6) Expected=A+B−(A×B/100) • A=observed efficacy of active ingredient A at the same concentration as used in the mixture; • B=observed efficacy of active ingredient B at the same concentration as used in the mixture.

[2] = system: Chenopodium album L. (common lambsquarters); test: Postemergent herbicidal activity, greenhouse foliar application, CHEAL
Description: as §1, §2, §3, §4, §5, §6

[3] = system: Viola tricolor (L.) (wild pansy); test: Postemergent herbicidal activity, greenhouse foliar application, VIOTR
Description: as §1, §2, §3, §4, §5, §6

[4] = system: Stellaria media (L.) Vill. (common chickweed); test: Postemergent herbicidal activity, greenhouse foliar application, STEME
Description: as §1, §2, §3, §4, §5, §6

[5] = system: Setaria faberi Herrm. (giant foxtail); test: Postemergent herbicidal activity, greenhouse foliar application, SETFA
Description: as §1, §2, §3, §4, §5, §6

[6] = system: Sorghum vulgare (common sorghum); test: Postemergent herbicidal activity, greenhouse foliar application, SORVU
Description: as §1, §2, §3, §4, §5, §6

[7] = system: Amaranthus retroflexus L. (redroot pigweed); test: Postemergent herbicidal activity, greenhouse foliar application, AMARE
Description: as §1, §2, §3, §4, §5, §6

[8] = system: Ipomoea hederacea (L.) Jacq. (ivyleaf momingglory); test: Postemergent herbicidal activity, greenhouse foliar application, IPOHE
Description: as §1, §2, §3, §4, §5, §6

[9] = system: Cyperus esculentus L. (yellow nutsedge); test: Postemergent herbicidal activity, greenhouse foliar application, CYPES
Description: as §1, §2, §3, §4, §5, §6

For `COC(=O)c1nc(-c2ccc(Cl)c(OC)c2F)cc(N)c1Cl` [Cmpd 1, methyl 4-amino-3-chloro-6-(4-chloro-2-fluoro-3-methoxyphenyl)pyridine-2-carboxylate], the “BRSNW Obs, percent (%) control rated visually” value ([1]; 1.25 g ae/ha) was 0%, the “BRSNW Obs, percent (%) control rated visually” value ([1]; 2.5 g ae/ha) was 5% and the “BRSNW Obs, percent (%) control rated visually” value ([1]; 5 g ae/ha) was 20%. The “CHEAL Obs, percent (%) control rated visually” value ([2]; 1.25 g ae/ha) was 70%, the “CHEAL Obs, percent (%) control rated visually” value ([2]; 2.5 g ae/ha) was 80% and the “CHEAL Obs, percent (%) control rated visually” value ([2]; 5 g ae/ha) was 93%. For the same molecule, the “VIOTR Obs, percent (%) control rated visually” value ([3]; 1.25 g ae/ha) was 10%, the “VIOTR Obs, percent (%) control rated visually” value ([3]; 2.5 g ae/ha) was 10% and the “VIOTR Obs, percent (%) control rated visually” value ([3]; 5 g ae/ha) was 30%. For the same molecule, the “STEME Obs, percent (%) control rated visually” value ([4]; 1.25 g ae/ha) was 30%, the “STEME Obs, percent (%) control rated visually” value ([4]; 2.5 g ae/ha) was 20% and the “STEME Obs, percent (%) control rated visually” value ([4]; 5 g ae/ha) was 40%. The “SETFA Obs, percent (%) control rated visually” value ([5]; 1.25 g ae/ha) was 0%, the “SETFA Obs, percent (%) control rated visually” value ([5]; 2.5 g ae/ha) was 0% and the “SETFA Obs, percent (%) control rated visually” value ([5]; 5 g ae/ha) was 30%. The “SORVU Obs, percent (%) control rated visually” value ([6]; 1.25 g ae/ha) was 0%, the “SORVU Obs, percent (%) control rated visually” value ([6]; 2.5 g ae/ha) was 0% and the “SORVU Obs, percent (%) control rated visually” value ([6]; 5 g ae/ha) was 0%. The “AMARE Obs, percent (%) control rated visually” value ([7]; 1.25 g ae/ha) was 50%, the “AMARE Obs, percent (%) control rated visually” value ([7]; 2.5 g ae/ha) was 60% and the “AMARE Obs, percent (%) control rated visually” value ([7]; 5 g ae/ha) was 90%. For the same molecule, the “IPOHE Obs, percent (%) control rated visually” value ([8]; 1.25 g ae/ha) was 10%, the “IPOHE Obs, percent (%) control rated visually” value ([8]; 2.5 g ae/ha) was 20% and the “IPOHE Obs, percent (%) control rated visually” value ([8]; 5 g ae/ha) was 20%. For the same molecule, the “CYPES Obs, percent (%) control rated visually” value ([9]; 1.25 g ae/ha) was 50%, the “CYPES Obs, percent (%) control rated visually” value ([9]; 2.5 g ae/ha) was 90% and the “CYPES Obs, percent (%) control rated visually” value ([9]; 5 g ae/ha) was 93%.

In the case of `CCOc1nc(F)cc2nc(S(=O)(=O)Nc3c(Cl)cccc3C(=O)OC)nn12` [cloransulam-methyl, methyl 3-chloro-2-[[(5-ethoxy-7-fluoro[1,2,4]triazolo[1,5-c]pyrimidin-2-yl)sulfonyl]amino]benzoate], the “BRSNW Obs, percent (%) control rated visually” value ([1]; 4.375 g ai/ha) is reported as 90%, the “BRSNW Obs, percent (%) control rated visually” value ([1]; 8.75 g ai/ha) is reported as 93% and the “BRSNW Obs, percent (%) control rated visually” value ([1]; 17.5 g ai/ha) is reported as 95%. For the same molecule, the “CHEAL Obs, percent (%) control rated visually” value ([2]; 4.375 g ai/ha) was 0%, the “CHEAL Obs, percent (%) control rated visually” value ([2]; 8.75 g ai/ha) was 10% and the “CHEAL Obs, percent (%) control rated visually” value ([2]; 17.5 g ai/ha) was 20%. The “VIOTR Obs, percent (%) control rated visually” value ([3]; 4.375 g ai/ha) was 10%, the “VIOTR Obs, percent (%) control rated visually” value ([3]; 8.75 g ai/ha) was 50% and the “VIOTR Obs, percent (%) control rated visually” value ([3]; 17.5 g ai/ha) was 65%. For the same molecule, the “STEME Obs, percent (%) control rated visually” value ([4]; 4.375 g ai/ha) was 0%, the “STEME Obs, percent (%) control rated visually” value ([4]; 8.75 g ai/ha) was 0% and the “STEME Obs, percent (%) control rated visually” value ([4]; 17.5 g ai/ha) was 0%. For the same molecule, the “SETFA Obs, percent (%) control rated visually” value ([5]; 4.375 g ai/ha) was 0%, the “SETFA Obs, percent (%) control rated visually” value ([5]; 8.75 g ai/ha) was 0% and the “SETFA Obs, percent (%) control rated visually” value ([5]; 17.5 g ai/ha) was 0%. For the same molecule, the “SORVU Obs, percent (%) control rated visually” value ([6]; 4.375 g ai/ha) was 0%, the “SORVU Obs, percent (%) control rated visually” value ([6]; 8.75 g ai/ha) was 10% and the “SORVU Obs, percent (%) control rated visually” value ([6]; 17.5 g ai/ha) was 20%. For the same molecule, the “AMARE Obs, percent (%) control rated visually” value ([7]; 4.375 g ai/ha) was 0%, the “AMARE Obs, percent (%) control rated visually” value ([7]; 8.75 g ai/ha) was 10% and the “AMARE Obs, percent (%) control rated visually” value ([7]; 17.5 g ai/ha) was 20%. For the same molecule, the “IPOHE Obs, percent (%) control rated visually” value ([8]; 4.375 g ai/ha) was 80%, the “IPOHE Obs, percent (%) control rated visually” value ([8]; 8.75 g ai/ha) was 85% and the “IPOHE Obs, percent (%) control rated visually” value ([8]; 17.5 g ai/ha) was 85%.

In the case of `CCOc1nc(F)cc2nc(S(=O)(=O)Nc3c(Cl)cccc3Cl)nn12` [diclosulam, N-(2,6-dichlorophenyl)-5-ethoxy-7-fluoro[1,2,4]triazolo[1,5-c]pyrimidine-2-sulfonamide], the “BRSNW Obs, percent (%) control rated visually” value ([1]; 4.375 g ai/ha) is reported as 80%, the “BRSNW Obs, percent (%) control rated visually” value ([1]; 8.75 g ai/ha) is reported as 85% and the “BRSNW Obs, percent (%) control rated visually” value ([1]; 17.5 g ai/ha) is reported as 90%. The “CHEAL Obs, percent (%) control rated visually” value ([2]; 4.375 g ai/ha) was 0%, the “CHEAL Obs, percent (%) control rated visually” value ([2]; 8.75 g ai/ha) was 10% and the “CHEAL Obs, percent (%) control rated visually” value ([2]; 17.5 g ai/ha) was 40%. For the same molecule, the “VIOTR Obs, percent (%) control rated visually” value ([3]; 4.375 g ai/ha) was 10%, the “VIOTR Obs, percent (%) control rated visually” value ([3]; 8.75 g ai/ha) was 50% and the “VIOTR Obs, percent (%) control rated visually” value ([3]; 17.5 g ai/ha) was 70%. The “STEME Obs, percent (%) control rated visually” value ([4]; 4.375 g ai/ha) was 0%, the “STEME Obs, percent (%) control rated visually” value ([4]; 8.75 g ai/ha) was 0% and the “STEME Obs, percent (%) control rated visually” value ([4]; 17.5 g ai/ha) was 0%. For the same molecule, the “SETFA Obs, percent (%) control rated visually” value ([5]; 4.375 g ai/ha) was 0%, the “SETFA Obs, percent (%) control rated visually” value ([5]; 8.75 g ai/ha) was 0% and the “SETFA Obs, percent (%) control rated visually” value ([5]; 17.5 g ai/ha) was 0%. The “SORVU Obs, percent (%) control rated visually” value ([6]; 4.375 g ai/ha) was 0%, the “SORVU Obs, percent (%) control rated visually” value ([6]; 8.75 g ai/ha) was 0% and the “SORVU Obs, percent (%) control rated visually” value ([6]; 17.5 g ai/ha) was 0%. The “AMARE Obs, percent (%) control rated visually” value ([7]; 4.375 g ai/ha) was 10%, the “AMARE Obs, percent (%) control rated visually” value ([7]; 8.75 g ai/ha) was 20% and the “AMARE Obs, percent (%) control rated visually” value ([7]; 17.5 g ai/ha) was 30%. For the same molecule, the “IPOHE Obs, percent (%) control rated visually” value ([8]; 4.375 g ai/ha) was 75%, the “IPOHE Obs, percent (%) control rated visually” value ([8]; 8.75 g ai/ha) was 80% and the “IPOHE Obs, percent (%) control rated visually” value ([8]; 17.5 g ai/ha) was 85%. For the same molecule, the “CYPES Obs, percent (%) control rated visually” value ([9]; 4.375 g ai/ha) was 60%, the “CYPES Obs, percent (%) control rated visually” value ([9]; 8.75 g ai/ha) was 60% and the “CYPES Obs, percent (%) control rated visually” value ([9]; 17.5 g ai/ha) was 70%.
